Measurements reported in ChEMBL document CHEMBL6109039, “Designed and synthesized novel tripeptides targeting diabetes and its related pathologies” (Eur J Med Chem, 2025).

Experiments:
Albumin [1] = target: T1, Albumin (Homo sapiens, UniProt P02768); assay: Inhibition of D-fructose glycation in human serum albumin model by measuring ketoamine moieties incubated for 26 days by Nitroblue tetrazolium (NBT) reduction assay (reference value: 118.21 nmol/mL); conditions: 624 h, time 26 day
Albumin [2] = target: T1, Albumin; assay: Inhibition of D-fructose glycation in human serum albumin model by measuring absorbance at 279 nm incubated for 26 days by UV spectroscopic analysis (reference value: 2.267); conditions: 624 h, time 26 day
Albumin [3] = target: T1, Albumin; assay: Inhibition of D-glucose glycation in human serum albumin model by measuring ketoamine moieties incubated for 7 days by Nitroblue tetrazolium (NBT) reduction assay (reference value: 35.92 nmol/mL); conditions: 168 h, time 7 day
Albumin [4] = target: T1, Albumin; assay: Inhibition of D-glucose glycation in human serum albumin model assessed as reduction in fluorescence intensity incubated for 3 days by UV spectroscopic analysis relative to control; conditions: 72 h, time 3 day
Albumin [5] = target: T1, Albumin; assay: Inhibition of D-fructose glycation in human serum albumin model by measuring absorbance at 279 nm incubated for 33 days by UV spectroscopic analysis (Rvb =2.222); conditions: 792 h, time 33 day
Albumin [6] = target: T1, Albumin; assay: Inhibition of D-fructose glycation in human serum albumin model by measuring ketoamine moieties incubated for 30 days by Nitroblue tetrazolium (NBT) reduction assay (reference value: 128.71 nmol/mL); conditions: 720 h, time 30 day
Albumin [7] = target: T1, Albumin; assay: Inhibition of D-fructose glycation in human serum albumin model by measuring ketoamine moieties incubated for 3 days by Nitroblue tetrazolium (NBT) reduction assay (reference value: 152.64 nmol/mL); conditions: 72 h, time 3 day
Albumin [8] = target: T1, Albumin; assay: Inhibition of D-fructose glycation in human serum albumin model by measuring ketoamine moieties incubated for 14 days by Nitroblue tetrazolium (NBT) reduction assay (reference value: 129.58 nmol/mL); conditions: 336 h, time 14 day
Albumin [9] = target: T1, Albumin; assay: Inhibition of D-fructose glycation in human serum albumin model incubated for 14 days by UV spectroscopic analysis relative to control; conditions: 336 h, time 14 day
Albumin [10] = target: T1, Albumin; assay: Inhibition of D-glucose glycation in human serum albumin by measuring absorbance at 279 nm model incubated for 14 days by UV spectroscopic analysis (reference value: 2.302); conditions: 336 h, time 14 day
Albumin [11] = target: T1, Albumin; assay: Inhibition of D-glucose glycation in human serum albumin model by measuring absorbance at 279 nm incubated for 30 days by UV spectroscopic analysis (reference value: 2.295); conditions: 720 h, time 30 day
Albumin [12] = target: T1, Albumin; assay: Inhibition of D-glucose glycation in human serum albumin model by measuring ketoamine moieties incubated for 5 days by Nitroblue tetrazolium (NBT) reduction assay (reference value: 18.58 nmol/mL); conditions: 120 h, time 5 day
Albumin [13] = target: T1, Albumin; assay: Inhibition of D-glucose glycation in human serum albumin model by measuring ketoamine moieties incubated for 33 days by Nitroblue tetrazolium (NBT) reduction assay (reference value: 66.64 nmol/mL); conditions: 792 h, time 33 day
Albumin [14] = target: T1, Albumin; assay: Inhibition of D-fructose glycation in human serum albumin model by measuring ketoamine moieties incubated for 5 days by Nitroblue tetrazolium (NBT) reduction assay (reference value: 111.94 nmol/mL); conditions: 120 h, time 5 day
Albumin [15] = target: T1, Albumin; assay: Inhibition of D-glucose glycation in human serum albumin model by measuring absorbance at 279 nm incubated for 5 days by UV spectroscopic analysis (reference value: 0.741); conditions: 120 h, time 5 day
Albumin [16] = target: T1, Albumin; assay: Inhibition of D-glucose glycation in human serum albumin model incubated for 14 days by UV spectroscopic analysis relative to control; conditions: 336 h, time 14 day
Albumin [17] = target: T1, Albumin; assay: Inhibition of D-fructose glycation in human serum albumin model by measuring absorbance at 279 nm incubated for 3 days by UV spectroscopic analysis (reference value: 0.492); conditions: 72 h, time 3 day
Albumin [18] = target: T1, Albumin; assay: Inhibition of D-glucose glycation in human serum albumin model by measuring ketoamine moieties incubated for 26 days by Nitroblue tetrazolium (NBT) reduction assay (reference value: 28.79 nmol/mL); conditions: 624 h, time 26 day
Albumin [19] = target: T1, Albumin; assay: Inhibition of D-fructose glycation in human serum albumin model by measuring absorbance at 279 nm incubated for 7 days by UV spectroscopic analysis (reference value: 1.072); conditions: 168 h, time 7 day
Albumin [20] = target: T1, Albumin; assay: Inhibition of D-glucose glycation in human serum albumin model by measuring absorbance at 279 nm incubated for 3 days by UV spectroscopic analysis (reference value: 0.562); conditions: 72 h, time 3 day
Albumin [21] = target: T1, Albumin; assay: Inhibition of D-glucose glycation in human serum albumin model by measuring ketoamine moieties incubated for 14 days by Nitroblue tetrazolium (NBT) reduction assay (reference value: 28.69 nmol/mL); conditions: 336 h, time 14 day
Albumin [22] = target: T1, Albumin; assay: Inhibition of D-fructose glycation in human serum albumin model assessed as reduction in fluorescence intensity incubated for 3 days by UV spectroscopic analysis relative to control; conditions: 72 h, time 3 day
Albumin [23] = target: T1, Albumin; assay: Inhibition of D-fructose glycation in human serum albumin model by measuring ketoamine moieties incubated for 7 days by Nitroblue tetrazolium (NBT) reduction assay (reference value: 125.33 nmol/mL); conditions: 168 h, time 7 day
Albumin [24] = target: T1, Albumin; assay: Inhibition of D-glucose glycation in human serum albumin model by measuring absorbance at 279 nm incubated for 7 days by UV spectroscopic analysis (reference value: […]); conditions: 168 h, time 7 day
Albumin [25] = target: T1, Albumin; assay: Inhibition of D-glucose glycation in human serum albumin model by measuring ketoamine moieties incubated for 30 days by Nitroblue tetrazolium (NBT) reduction assay (reference value: 27.85 nmol/mL); conditions: 720 h, time 30 day
Albumin [26] = target: T1, Albumin; assay: Inhibition of D-glucose glycation in human serum albumin model by measuring ketoamine moieties incubated for 3 days by Nitroblue tetrazolium (NBT) reduction assay (reference value: 24.27 nmol/mL); conditions: 72 h, time 3 day
Albumin [27] = target: T1, Albumin; assay: Inhibition of D-fructose glycation in human serum albumin model by measuring ketoamine moieties incubated for 33 days by Nitroblue tetrazolium (NBT) reduction assay (reference value: 144.33 nmol/mL); conditions: 792 h, time 33 day
Albumin [28] = target: T1, Albumin; assay: Inhibition of D-fructose glycation in human serum albumin model by measuring absorbance at 279 nm incubated for 5 days by UV spectroscopic analysis (reference value: 1.056); conditions: 120 h, time 5 day
Albumin [29] = target: T1, Albumin; assay: Inhibition of D-glucose glycation in human serum albumin model by measuring absorbance at 279 nm incubated for 33 days by UV spectroscopic analysis (reference value: 1.997); conditions: 792 h, time 33 day
Albumin [30] = target: T1, Albumin; assay: Inhibition of D-fructose glycation in human serum albumin model by measuring absorbance at 279 nm incubated for 14 days by UV spectroscopic analysis (reference value: 2.333); conditions: 336 h, time 14 day
Albumin [31] = target: T1, Albumin; assay: Inhibition of D-glucose glycation in human serum albumin model by measuring absorbance at 279 nm incubated for 26 days by UV spectroscopic analysis (reference value: 2.301); conditions: 624 h, time 26 day
Albumin [32] = target: T1, Albumin; assay: Inhibition of D-fructose glycation in human serum albumin model by measuring absorbance at 279 nm incubated for 30 days by UV spectroscopic analysis (reference value: 2.323); conditions: 720 h, time 30 day

T1 sequence (P02768 whole entry): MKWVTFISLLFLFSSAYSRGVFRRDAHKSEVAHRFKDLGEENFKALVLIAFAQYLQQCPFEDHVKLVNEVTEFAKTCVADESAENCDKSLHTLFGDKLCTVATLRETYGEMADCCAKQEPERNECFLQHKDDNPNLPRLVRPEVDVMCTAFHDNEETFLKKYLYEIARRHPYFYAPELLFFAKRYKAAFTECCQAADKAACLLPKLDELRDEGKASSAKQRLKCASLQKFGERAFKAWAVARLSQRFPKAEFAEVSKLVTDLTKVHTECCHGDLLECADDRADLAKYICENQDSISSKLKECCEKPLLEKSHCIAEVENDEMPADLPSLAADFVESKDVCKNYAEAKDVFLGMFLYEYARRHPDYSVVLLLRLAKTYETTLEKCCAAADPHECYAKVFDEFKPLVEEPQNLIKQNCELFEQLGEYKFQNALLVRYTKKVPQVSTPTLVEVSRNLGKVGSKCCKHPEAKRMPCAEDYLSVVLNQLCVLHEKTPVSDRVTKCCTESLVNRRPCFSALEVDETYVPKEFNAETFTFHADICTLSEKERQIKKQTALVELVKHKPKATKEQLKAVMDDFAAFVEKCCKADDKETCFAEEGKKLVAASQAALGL

Activity (Albumin [1]): 113.02 nmol/mL
OD (Albumin [2]): 2.127
Activity (Albumin [3]): 19.93 nmol/mL
inhibition (INH) (Albumin [4]): 52.1%
OD (Albumin [5]): 2.173
Activity (Albumin [6]): 123.84 nmol/mL
Activity (Albumin [7]): 144.52 nmol/mL
Activity (Albumin [8]): 124.63 nmol/mL
inhibition (INH) (Albumin [9]): 1.59%
OD (Albumin [10]): 1.662
OD (Albumin [11]): 1.654
Activity (Albumin [12]): 17.43 nmol/mL
Activity (Albumin [13]): 36.79 nmol/mL
Activity (Albumin [14]): 105.35 nmol/mL
OD (Albumin [15]): 0.684
inhibition (INH) (Albumin [16]): 41.84%
OD (Albumin [17]): 0.487
Activity (Albumin [18]): 27.61 nmol/mL
OD (Albumin [19]): 0.756
OD (Albumin [20]): 0.562
Activity (Albumin [21]): 25.34 nmol/mL
inhibition (INH) (Albumin [22]): 27.77%
Activity (Albumin [23]): 119.64 nmol/mL
OD (Albumin [24]): 0.609
Activity (Albumin [25]): 24.69 nmol/mL
Activity (Albumin [26]): 20.51 nmol/mL
Activity (Albumin [27]): 143.12 nmol/mL
OD (Albumin [28]): 1.024
OD (Albumin [29]): 1.853
OD (Albumin [30]): 1.872
OD (Albumin [31]): 2.274
OD (Albumin [32]): 1.866
SMILES: NCCC(=O)N[C@@H](Cc1cnc[nH]1)C(=O)O [CARNOSINE]
